# From ChEMBL document CHEMBL4311942, “Design of Trp-Rich Dodecapeptides with Broad-Spectrum Antimicrobial Potency and Membrane-Disruptive Mechanism” (J Med Chem, 2019)
# Active and inactive are the calls of the source. The rule behind the calls is not given here. Where a SMILES comes first, the peptide text is derived from it.
# Columns and labels:
# Escherichia coli [1] = assay: Antibacterial activity against Escherichia coli ATCC 25922 in presence of MgCl2 by broth microdilution method; type: functional
# Staphylococcus aureus [2] = assay: Antibacterial activity against Staphylococcus aureus ATCC 29213 in presence of NaBH4 by broth microdilution method; type: functional
# Acinetobacter baumannii = assay: Antibacterial activity against Acinetobacter baumannii AB1901 clinical isolate incubated for 18 to 24 hrs by broth microdilution method; type: functional
# Staphylococcus aureus [3] = assay: Antibacterial activity against Staphylococcus aureus ATCC 29213 in presence of FeCl3 by broth microdilution method; type: functional
# Escherichia coli [4] = assay: Bactericidal activity against Escherichia coli ATCC 25922 assessed as reduction in bacterial growth at 2 times MIC after 60 mins by time kill assay relative to control; type: functional
# [5] = Drug localization in Escherichia coli ATCC 25922 at 2 times MIC incubated for 1 hr using FITC-labelled peptides by propidium iodide-staining based super resolution fluorescent microscopy; type: ADME
# [6] = Cytotoxicity against mouse RAW264.7 cells assessed as cell survival at <= 32 uM after 24 hrs by MTT assay relative to control; type: cell-based; settings: RAW264.7 cells, up to 32 µM, read-out: Activity
# Escherichia coli [7] = assay: Induction of cell membrane disruption in Escherichia coli ATCC 25922 assessed as appearance of cytoplasmic clear zones at 1 times MIC after 60 mins by transmission electron microscopy; type: organism-based
# Escherichia coli [8] = assay: Induction of outer membrane permeabilization in Escherichia coli UB1005 assessed as increase in NPN uptake at 4 uM by spectrofluorophotometric assay relative to control
# Staphylococcus aureus [9] = assay: Antibacterial activity against Staphylococcus aureus ATCC 25923 incubated for 18 to 24 hrs by broth microdilution method; type: functional
# Staphylococcus aureus [10] = assay: Antibacterial activity against Staphylococcus aureus ATCC 29213 in presence of 25% serum by broth microdilution method; type: functional
# Staphylococcus aureus [11] = assay: Induction of cell membrane disruption in Staphylococcus aureus ATCC 29213 assessed as leakage of cellular content at 1 to 2 times MIC after 60 mins by transmission electron microscopy; type: organism-based
# Escherichia coli [12] = assay: Induction of cytoplasmic membrane depolarization in Escherichia coli UB1005 by DiSC3-5 dye based fluorescence method; type: organism-based
# Escherichia coli [13] = assay: Antibacterial activity against Escherichia coli ATCC 25922 in presence of 12.5% serum by broth microdilution method; type: functional
# Staphylococcus aureus [14] = assay: Induction of cell membrane disruption in Staphylococcus aureus ATCC 29213 assessed as apperance of broken and empty cell envelope at 2 times MIC after 60 mins by field emission scanning electron microscopy; type: organism-based
# Escherichia coli [15] = assay: Bactericidal activity against Escherichia coli ATCC 25922 at 2 times MIC after 120 mins by time kill assay relative to control; type: functional
# Escherichia coli [16] = assay: Antibacterial activity against Escherichia coli ATCC 25922 in presence of CaCl2 by broth microdilution method; type: functional
# Escherichia coli [17] = assay: Antibacterial activity against Escherichia coli ATCC 25922 in presence of 50% serum by broth microdilution method; type: functional
# Escherichia coli [18] = assay: Antibacterial activity against Escherichia coli ATCC 25922 incubated for 2 hrs in presence of sodium phosphate buffer at pH 2 by broth microdilution method; type: functional; settings: ATCC 25922, 2 h
# Escherichia coli [19] = assay: Antibacterial activity against Escherichia coli ATCC 25922 incubated for 18 to 24 hrs using FITC-labelled peptide by broth microdilution method; type: functional, organism-based
# Staphylococcus aureus [20] = assay: Antibacterial activity against Staphylococcus aureus ATCC 29213 incubated for 2 hrs in presence of sodium phosphate buffer at pH 12 by broth microdilution method; type: functional; settings: ATCC 29213, 2 h
# Lipopolysaccharide (LPS) [21] = assay: Displacement of BODIPY-TR-cadaverine from Escherichia coli O111:B4 LPS by spectrofluorophotometric method
# Staphylococcus aureus [22] = assay: Antibacterial activity against Staphylococcus aureus ATCC 29213 using preheated compound at 100 degreeC for 1 hr by broth microdilution method; type: functional; settings: ATCC 29213, 1 h
# Staphylococcus aureus [23] = assay: Antibacterial activity against Staphylococcus aureus ATCC 29213 in presence of 50% serum by broth microdilution method; type: functional
# Erythrocyte = assay: Haemolytic activity in human erythrocytes assessed as lowest concentration causing 5% hemolysis after 1 hr; type: ADME, cell-based
# Staphylococcus aureus [24] = assay: Antibacterial activity against Staphylococcus aureus ATCC 29213 incubated for 18 to 24 hrs using FITC-labelled peptide by broth microdilution method; type: functional, organism-based
# Escherichia coli [25] = assay: Antibacterial activity against Escherichia coli ATCC 25922 in presence of FeCl3 by broth microdilution method; type: functional
# Escherichia coli [26] = assay: Induction of cell membrane disruption in Escherichia coli ATCC 25922 assessed as appearance of partial membrane corrugation at 1 times MIC after 60 mins by field emission scanning electron microscopy; type: organism-based
# Escherichia coli [27] = assay: Antibacterial activity against Escherichia coli ATCC 25922 incubated for 2 hrs in presence of sodium phosphate buffer at pH 12 by broth microdilution method; type: functional; settings: ATCC 25922, 2 h
# Staphylococcus aureus [28] = assay: Antibacterial activity against Staphylococcus aureus ATCC 29213 incubated for 2 hrs in presence of sodium phosphate buffer at pH 10 by broth microdilution method; type: functional; settings: ATCC 29213, 2 h
# Escherichia coli [29] = assay: Antibacterial activity against Escherichia coli ATCC 25922 in presence of ZnCl2 by broth microdilution method; type: functional
# Escherichia coli [30] = assay: Induction of cell membrane disruption in Escherichia coli ATCC 25922 assessed as propidium iodide-positive cells at 2 times MIC after 30 mins by flow cytometric analysis (reference value: 0.8%)
# Escherichia coli [31] = assay: Antibacterial activity against Escherichia coli ATCC 25922 incubated for 2 hrs in presence of sodium phosphate buffer at pH 4 by broth microdilution method; type: functional; settings: ATCC 25922, 2 h
# Escherichia coli [32] = assay: Inhibition of swimming motility of Escherichia coli ATCC 25922 after 16 hrs; type: functional, organism-based
# Staphylococcus aureus [33] = assay: Bactericidal activity against Staphylococcus aureus ATCC 29213 at 2 times MIC after 60 mins by time kill assay; type: functional, organism-based
# Lipopolysaccharide (LPS) [34] = assay: Displacement of BODIPY-TR-cadaverine from Escherichia coli O111:B4 LPS assessed as increase in fluorescence intensity at 64 uM by spectrofluorophotometric method relative to control
# Staphylococcus aureus [35] = assay: Antibacterial activity against Staphylococcus aureus ATCC 29213 incubated for 18 to 24 hrs by broth microdilution method; type: functional
# Escherichia coli [36] = assay: Antibacterial activity against Escherichia coli ATCC 25922 incubated for 2 hrs in presence of sodium phosphate buffer at pH 10 by broth microdilution method; type: functional; settings: ATCC 25922, 2 h
smiles,measurement,setting,value
CC(C)C[C@H](NC(=O)[C@H](CCCNC(=N)N)NC(=O)[C@H](Cc1c[nH]c2ccccc12)NC(=O)[C@H](CCCNC(=N)N)NC(=O)[C@@H](NC(=O)[C@H](CCCCN)NC(=O)[C@H](Cc1c[nH]c2ccccc12)NC(=O)[C@H](CCCNC(=N)N)NC(=O)[C@H](CC(C)C)NC(=O)[C@H](CCCNC(=N)N)NC(=O)[C@@H](N)Cc1c[nH]c2ccccc12)[C@@H](C)O)C(=O)N[C@@H](CCCCN)C(N)=O (H-WRLRWKTRWRLK-NH2),MIC,Escherichia coli [1],2 µM
same,MIC,Staphylococcus aureus [2],4 µM
same,MIC,Acinetobacter baumannii,4 µM
same,MIC,Staphylococcus aureus [3],4 µM
same,log(activity),Escherichia coli [4],1
same,Drug uptake,[5],Active
same,viability at 24 h,[6],≥ 70%
same,Activity,Escherichia coli [7],Active
same,Activity,Escherichia coli [8],90%
same,MIC,Staphylococcus aureus [9],2 µM
same,MIC,Staphylococcus aureus [10],8 µM
same,Activity,Staphylococcus aureus [11],Active
same,Activity,Escherichia coli [12],Dose-dependent effect
same,MIC,Escherichia coli [13],4 µM
same,Activity,Staphylococcus aureus [14],Active
same,Activity,Escherichia coli [15],100%
same,MIC,Escherichia coli [16],2 µM
same,MIC,Escherichia coli [17],8 µM
same,MIC,Escherichia coli [18],4 µM
same,Activity,Escherichia coli [19],Active
same,MIC,Staphylococcus aureus [20],8 µM
same,Activity,Lipopolysaccharide (LPS) [21],Dose-dependent effect
same,MIC,Staphylococcus aureus [22],2 µM
same,MIC,Staphylococcus aureus [23],8 µM
same,MHC,Erythrocyte,> 128 µM
same,Activity,Staphylococcus aureus [24],Active
same,MIC,Escherichia coli [25],4 µM
same,Activity,Escherichia coli [26],Active
same,MIC,Escherichia coli [27],2 µM
same,MIC,Staphylococcus aureus [28],4 µM
same,MIC,Escherichia coli [29],4 µM
same,Activity,Escherichia coli [30],91.7%
same,MIC,Escherichia coli [31],2 µM
same,inhibition,Escherichia coli [32],Dose-dependent effect
same,Activity,Staphylococcus aureus [33],Active
same,Activity,Lipopolysaccharide (LPS) [34],92%
same,MIC,Staphylococcus aureus [35],4 µM
same,MIC,Escherichia coli [36],4 µM
